The text below walks through data of ChEMBL document CHEMBL1157539, “Thousands of chemical starting points for antimalarial lead identification” (Nature, 2010).

The assay relates to Plasmodium falciparum. Description: GSK_TCMDC: Inhibition of Plasmodium falciparum 3D7 in whole erythrocytes, using parasite LDH activity as an index of growth. Type of assay: functional, organism-based. The settings on record: Plasmodium falciparum, 3D7.
`Nc1c2ccccc2nc2ccc(Cl)cc12` showed an XC50 of 805 nM.

With `CC(C)N1CCC(N(Cc2ccc(-c3ccc(C(F)(F)F)cc3)cc2)C(=O)Cn2c(CCc3cccc(F)c3F)cc(=O)c3c2CCC3)CC1`, the XC50 stood at 617 nM.

`Cc1nc(N)nc(N)c1-c1ccc2ccccc2c1` had an XC50 of 868 nM. Molecule `O=C1COc2cc(Cl)c(CNC3CCN(CCc4ccnc5c(F)cc(F)cc45)CC3)nc2N1` came in with an XC50 of 797 nM. Molecule `COc1ccc(CNCc2cccc(-c3cccc(-c4nc5cccc(C)c5[nH]4)c3)c2)cc1` registered an XC50 of 134 nM.

As for `Nc1nc(N)c2c(ccc3c2ccn3Cc2ccc(Cl)cc2)n1`, the XC50 is 3.2 nM. With `CC(C)(C)c1ccc(NC(=O)c2ccc(CN3CCCN(Cc4cccc(O)c4)CC3)cc2)cc1`, the XC50 stood at 665 nM.

For `CN1CCC(Oc2ccc(CN3CC[C@H](NC(=O)c4ccc(F)c(F)c4)C3)c3ccccc23)C1` (stereo not given in full), the XC50 was 1080 nM.

As for `CC(C)CCN1CCCN(Cc2cccc(NC(=O)c3cc4ccccc4s3)c2)CC1`, the XC50 was 917 nM. Turning to `Oc1ccc(CCCNc2nc(NCc3cccc4ccccc34)nc(NC3CCNCC3)n2)cc1`, the XC50 is 1130 nM. The molecule `CC1c2cccc(O)c2CCN1CCc1ccc(Cl)c(Cl)c1` (stereo not given) displayed an XC50 of 138 nM.

In turn, `COc1ccccc1CCNc1nc(C)cc(NCCC(=O)Nc2ccccc2)n1` came in with an XC50 of 806 nM. Consider `CCCCCCCc1c(C)nc2cc(OC)ccc2c1O`, for which the XC50 amounted to 62.8 nM. The molecule `COc1ccc(CN(C)CCCOc2ccc(NC(=O)C=Cc3ccc(C(C)(C)C)cc3)cc2)cc1OC` showed an XC50 of 855 nM. Next, `COc1ccc(CC(C)NCC(O)c2ccc(Cl)c(Cl)c2)cc1` (stereo not given): 717 nM; `CC(C)CN(C)c1ncnc2c1nc(-c1cncc(C#N)c1)n2CCNCc1ccccc1`: 1360 nM.

On to `Cc1c(C(=O)N[C@@H](C)c2ccccc2)c2cc(O)c(Br)cc2n1C1CCCCC1`, for which the XC50 worked out at 840 nM. For `COc1ccc(-c2cccc(NC(=O)c3ccc(Cl)cc3)c2)cc1CNC(C)C` the value was 695 nM; for `Cc1ccc(O)cc1Nc1ccnc2cc(-c3ccccc3)ccc12`, 1070 nM; for `O=C(Cc1cc(=O)oc2cc(O)ccc12)N1CCC(CN2CCC(c3c[nH]c4ccccc34)CC2)CC1`, 870 nM. Next, `CN(Cc1cccc(C#N)c1)C1CCN(c2cc(NC(=O)c3cccc(F)c3)ccn2)CC1`: 926 nM. As to `Cc1csc(-c2ncc(OC[C@@H](N)Cc3ccccc3)cc2-c2ccc3[nH]nc(C)c3c2)c1`, the XC50 amounted to 836 nM. In turn, `CN(/N=C/c1ccc(Cl)cc1)c1nc(NCCc2ccc(O)cc2)nc(N2CCNCC2)n1` gave an XC50 of 1350 nM.

The molecule `O=C(/C=C/c1ccc(Cl)c(Cl)c1)NCCCCCN1CCCN(C(=O)Nc2cc(Cl)cc(Cl)c2)CC1` returned an XC50 of 791 nM.

Molecule `COc1ccc(N2CCN(CCCOc3ccc(NC(=O)c4cc(Cl)cc(Cl)c4)cc3)CC2)c(OC)c1` came in with an XC50 of 897 nM.

Consider `O=C(NCCc1ccc(Cl)c(Cl)c1)c1ccc(CNC(=O)c2ccc(O)c(-c3ccc(Cl)c(Cl)c3)c2)cc1`, for which the XC50 was found to be 812 nM.

`O=[N+]([O-])c1ccc(N/C(=N\c2ccccc2Br)NCCOc2ccccc2)c(O)c1` had an XC50 of 1050 nM. Next, `CCNc1cc(C(=O)N[C@@H](Cc2ccccc2)[C@H](O)CNC2CCC(C)(C)C2)cc(N2CCCCS2(=O)=O)c1` (stereo not given in full): 138 nM; `O=C(Nc1ccc(C(F)(F)F)cc1)c1cccc(S(=O)(=O)NC2CCN(Cc3ccccc3)C2)c1` (stereo not given): 1050 nM. In the case of `c1ccc(COc2ccc(Nc3ncnc4cnc(-c5ccc(CN6CCCCC6)o5)cc34)cc2)cc1`, the XC50 came to 967 nM.

`NC1CCN(Cc2ccc(-c3ccc(-c4nc5ccccc5[nH]4)s3)cc2)C1` (stereo not given): the XC50 is 743 nM. On to `CCCCCCCC1CC(CC(=O)Nc2ccnc3ccc(OC)cc23)CN1C(=O)OC(C)(C)C` (stereo not given), for which the XC50 amounted to 714 nM. Turning to `CCCc1nc2c(N3CCCN(C(=O)NC4CCCCC4)CC3)cccc2n1Cc1ccccn1`, the XC50 came to 1160 nM. As to `CCC(=O)N1CCc2cc(Br)cc(S(=O)(=O)N3CC(C)CC(C)C3)c21` (stereo not given), the XC50 turned out to be 932 nM. Next, `FC(F)(F)c1ccc2[nH]c(-c3ccc(-c4ccc(CNCCc5ccncc5)cc4)cc3)nc2c1`: 129 nM. On to `CCC(CC)(Cc1ccccc1)NC(=O)[C@H](Cc1ccc(OC)c(OC)c1)Nc1ccc(C#N)c2ccccc12`, for which the XC50 worked out at 866 nM. As to `Cc1ccc(CN2CCN(Cc3cccc(NC(=O)c4ccc5ccccc5c4)c3)CC2)cc1C`, the XC50 stood at 1220 nM. In turn, `Cc1ccc(Nc2nc(C)cc(NCc3ccc(-n4ccnc4)cc3)n2)cc1` returned an XC50 of 1010 nM. As for `CCOc1cc(C(=O)N[C@@H](Cc2ccccc2)[C@H](O)CNC(C)(C)c2cccc(OC)c2)cc(N2CCCS2(=O)=O)c1`, the XC50 turned out to be 224 nM. On to `O=C(/C=C/c1ccc(Cl)c(Cl)c1)NCCCCCN1CCN(C(=O)Nc2cccc(F)c2)CC1`, for which the XC50 was determined as 874 nM. `N#CCCN1CCN(Cc2cccc(-c3ccc(-c4nc5ccccc5[nH]4)cc3)c2)CC1` showed an XC50 of 1020 nM.

In the case of `O=C(Nc1cccc(-c2ccc(-c3nc4cc(F)ccc4[nH]3)cc2)c1)Nc1ccc(F)c(F)c1F`, the XC50 was 113 nM. Consider `COc1ccc(CNC2CCN(C)CC2)cc1-c1cccc(S(=O)(=O)NCc2ccccc2)c1`, for which the XC50 came to 723 nM. In turn, `COc1ccc2ncc(F)c([C@@H](O)CN3CCC(NCc4ccc5c(c4)NCCS5)CC3)c2n1` showed an XC50 of 504 nM. `O=C(Nc1ccc2ccccc2c1)c1ccc(CN2CCC(Cc3ccccc3)CC2)cc1` had an XC50 of 876 nM. Molecule `CCOC(=O)NC1=NC(C)(C)N(OCc2ccc(Cl)c(Cl)c2)C(NC(=O)OCC)=N1` gave an XC50 of 278 nM. Molecule `O=C1c2ccccc2C(=O)N1CCOc1c(Br)cc(Br)cc1CNCCCNc1cc(=O)c2ccccc2[nH]1` showed an XC50 of 837 nM.

In turn, `COC(=O)/C=C/C(=O)N[C@@H]1CC[C@@]2(O)[C@H]3Cc4ccc(O)c5c4[C@@]2(CCN3CC2CC2)[C@H]1O5` yielded an XC50 of 639 nM.

Molecule `CNc1ccc(CNCc2ccc(-c3ccc(-c4nc5cc(C(F)(F)F)ccc5[nH]4)cc3)cc2)cc1` returned an XC50 of 167 nM. In the case of `NC1CCN(Cc2cccc(-c3ccc(-c4nc5cc(C(F)(F)F)ccc5[nH]4)cc3)c2)C1` (stereo not given), the XC50 turned out to be 698 nM.

`COc1ccc(S(=O)(=O)N2CCC3(CC2)OCC(=O)NC3c2ccc(Cl)c(Cl)c2)cc1` (stereo not given) gave an XC50 of 644 nM. For the molecule `CCCn1c(Sc2ccc(C#N)c([N+](=O)[O-])c2)nnc1-c1ccc(N(C)C)cc1`, the XC50 was determined as 125 nM. In turn, `CNC(=O)c1ccccc1Nc1nc(Nc2cccc(CS(C)(=O)=O)c2)ncc1C` yielded an XC50 of 533 nM. Turning to `COc1ccc(NC2=C(c3ccccc3)C(=O)c3ccccc32)cn1`, the XC50 is 705 nM. Next, `COc1ccc(CNCC2CCC(CNCCc3ccccc3)CC2)cc1Cl` (stereo not given): 789 nM; `C=Cc1ccc(-c2c(C)[nH]c(C)c(Br)c2=O)cc1`: 556 nM. Molecule `CC(C)NCc1ccc(-c2cccc(NC(=O)c3ccc(Cl)cc3)c2)cc1` gave an XC50 of 289 nM. For the molecule `CCCNCc1ccc(-c2ccc(CN(CCOC)C(=O)/C=C/c3ccccc3C)cc2)nc1`, the XC50 stood at 903 nM. `CC(C)CNCc1cccc(-c2cccc(CN(CCCN3CCN(C)CC3)C(=O)Nc3ccccc3)c2)c1`: the XC50 turned out to be 1150 nM. With `N=C1N=C(N)NC2(CCCCC2)N1OCCCOc1cccc2ccccc12`, the XC50 amounted to 3.2 nM. Molecule `COc1ccc(CCn2c(=N)c(C(=O)NC3CCCC3)cc3c(=O)n4ccccc4nc32)cc1` gave an XC50 of 678 nM. `COc1cc2nc(N3CCC(CNC(=O)c4ccc(OC(F)(F)F)cc4)CC3)nc(N)c2cc1OC`: the XC50 came to 224 nM.

`CCc1ccc(-c2nc3cc(NC(=O)c4cc([N+](=O)[O-])cc([N+](=O)[O-])c4)ccc3o2)cc1` showed an XC50 of 932 nM. In the case of `COc1ccc(Cl)c(CC2c3cc(O)c(Cl)cc3CCN2C)c1` (stereo not given), the XC50 was 695 nM. In turn, `CN1CCN(CCCNCc2ccc(Nc3nccc(Nc4ccc(Oc5ccccc5)cc4)n3)cc2)CC1` registered an XC50 of 635 nM. In turn, `CC(=O)Oc1c(Br)c(C)nc(C)c1-c1ccc(Oc2ccc(OC(F)(F)F)cc2)cc1` gave an XC50 of 131 nM. The molecule `O=C(CCCc1ccccc1)Nc1cccc(N2CCC(N3CCN(c4ccccc4O)CC3)CC2)c1` had an XC50 of 786 nM. `O=C(c1ccc(-c2ccccn2)s1)N1CCc2cc3nccc(N4CCN5CCC[C@H]5C4)c3cc21` returned an XC50 of 762 nM.

`CC(CN1CCN(C)CC1)C(=O)Nc1ccc(-c2ccc(-c3nc4cc(C(F)(F)F)ccc4[nH]3)cc2)cc1` (stereo not given) showed an XC50 of 415 nM. `Cc1ccc2ncc(Cl)c(CCN3CCC(NCc4ccc5c(n4)NC(=O)CS5)CC3)c2n1` displayed an XC50 of 1100 nM.

For `COc1ccc(-c2nc(NC(=O)COc3ccc(C(C)=O)cc3)sc2C)cc1`, the XC50 amounted to 713 nM. For `CCOc1cc(C)ccc1C1CCN(CCCCNC(=O)c2ccc(NC(=O)c3cc(Cl)cc(Cl)c3)cc2)CC1` the value was 355 nM; for `Oc1ccc(CCNc2nc(NCCCOc3ccccc3-c3ccc(C(F)(F)F)cc3)nc(N3CCNCC3)n2)cc1`, 891 nM; for `CN1CC=C(c2csc3ccc(NC(=O)Nc4ccc(-c5ccncc5)c(Cl)c4)cc23)CC1`, 681 nM.

In turn, `Cc1cccc2nc(-c3cccc(-c4cccc(CNCCCN5CCCC5=O)c4)c3)[nH]c12` displayed an XC50 of 743 nM. The molecule `CCCC(C)c1cnc2nc(N)nc(N)c2c1C` (stereo not given) showed an XC50 of 28.4 nM.

`COc1ccc2nccc([C@@H](O)CN3CCC(NS(=O)(=O)c4cc(Br)c(Br)s4)CC3)c2c1` yielded an XC50 of 851 nM.

`COc1cc(F)c2nccc([C@@H](O)CN3CCC(NCc4ccc5c(n4)NC(=O)CS5)CC3)c2c1`: the XC50 was found to be 560 nM.

The molecule `CCN(CC)CCCC(C)Nc1ccnc2ccc(OC)cc12` (stereo not given) displayed an XC50 of 822 nM. With `CC1CN(c2cnn(Cc3cccc(NC(=O)Nc4ccc(F)cc4[N+](=O)[O-])c3)c(=O)c2Cl)CC(C)N1` (stereo not given), the XC50 turned out to be 866 nM. For `COc1ccc(-c2nonc2NC(=O)c2cccc(C)c2)cc1OC` the value was 806 nM.

The molecule `CN1CCC(NCc2cccc(-c3ccc(S(=O)(=O)NCc4ccccc4)cc3)c2)CC1` had an XC50 of 687 nM. `CC(=O)c1cccc(NC(=O)NC2CCN(c3ccnc(Nc4ccc(F)cc4)n3)C2)c1` (stereo not given) gave an XC50 of 650 nM. For `O=C(Nc1cccc(CN2CCN(C(=O)c3cccc(F)c3)CC2)c1)c1cccs1` the value was 372 nM; for `COc1cc(-c2nc3c4ccccc4c4ccccc4c3[nH]2)cc(OC)c1OC`, 848 nM.
